Data taken from US10973228B2, “Eco-friendly non-aqueous antimicrobial composition comprising hinokitiol with 1,3-propanediol and/or sorbitan caprylate” (ISP INVESTMENTS INC., priority 2012, dated 2021).
In brackets after ≈: the same amount, converted by molar mass.

How the values were obtained:
Format in all cases: cell-based
[1] = system: Aspergillus brasiliensis (DSM 1988); assay: MIC study on agar, fungal strain; settings: DSM1988, ppm of antimicrobial active (Hinokitiol), Malt extract-Agar (3%) pH 5.6, 2 to 3 weeks at 20 to 25° C.
Protocol: (§1) The individual concentrations of the test-product were weighed into sterile Erlenmeyer flasks and mixed with 100 ml of an appropriate growth media at a maximum temperature of about 40 to 50° C. Equal amounts of mixtures were poured into four Petri dishes. After cooling, the Petri dishes were inoculated with the respective standard strains. During the experiment, the Petri dishes were kept for 2 to 3 weeks at room temperature of about 20 to 25° C. in the dark. The following two different types of culture media were employed for the present studies: • i. Bacteria-Agar: merchantable Caso—Agar pH-Value: 7.3±0.2 • ii. Fungi/Yeast-Agar:merchantable Malt extract—Agar (3%) pH-Value: 5.6±0.2
(§2) After 2nd and 3rd weeks macroscopic evaluations were performed, the ratings are as follows:
(§3) The formulation under examination is considered to be efficient if the following conditions are duly fulfilled i.e. (i) after 2-3 weeks no growth of the tested culture is visible; (ii) with rising concentration of the tested formulation, the germ growth should macroscopically be reduced until it is not visible any more.

[2] = system: Trichoderma viride (DSM 63064); assay: MIC study on agar, fungal strain; settings: DSM63064, ppm of antimicrobial active (Hinokitiol), Malt extract-Agar (3%) pH 5.6, 2 to 3 weeks at 20 to 25° C.
Protocol: as §1, §2, §3

[3] = system: Burkholderia cepacia (DSM 7288); assay: MIC study on agar, bacterial strain; settings: DSM7288, ppm of antimicrobial active (Hinokitiol), Caso-Agar pH 7.3, 2 to 3 weeks at 20 to 25° C.
Protocol: as §1, §2, §3

[4] = system: Pseudomonas aeruginosa (DSM 1128); assay: MIC study on agar, bacterial strain; settings: DSM1128, ppm of antimicrobial active (Hinokitiol), Caso-Agar pH 7.3, 2 to 3 weeks at 20 to 25° C.
Protocol: as §1, §2, §3

[5] = system: Escherichia coli (DSM 1576); assay: MIC study on agar, bacterial strain; settings: for reduction of MIC level of hinokitiol: against Escherichia coli
Protocol: as §1, §2, §3

[6] = system: Staphylococcus aureus (DSM 799); assay: MIC study on agar, bacterial strain
Protocol: as §1, §2, §3

Compound: CC(C)c1cccc(O)c(=O)c1 [Hinokitiol, 2-Hydroxy-6-propan-2-ylcyclohepta-2,4,6-trien-1-one]
- MIC [1]: 100 µg/mL (≈ 609 µM)
- MIC [2]: 100 µg/mL (≈ 609 µM)
- MIC [3]: 500 µg/mL (≈ 3040 µM)
- MIC [4]: 500 µg/mL (≈ 3040 µM)
- MIC ([5]; DSM1576, Escherichia coli, ppm of antimicrobial active (Hinokitiol), Caso-Agar pH 7.3, 2 to 3 weeks at 20 to 25° C.): 100 µg/mL (≈ 609 µM)
- reduction of MIC level of hinokitiol ([5]; in presence of 1,3-propanediol (Zemea)): 50%
- reduction of MIC level of hinokitiol ([5]; in presence of sorbitan caprylate (Velsan SC)): 50%
- MIC ([6]; DSM799, Staphylococcus aureus, ppm of antimicrobial active (Hinokitiol), Caso-Agar pH 7.3, 2 to 3 weeks at 20 to 25° C.): 100 µg/mL (≈ 609 µM)
- reduction of MIC level of hinokitiol ([6]; in presence of 1,3-propanediol (Zemea), against Staphylococcus aureus): 50%
